Converted amounts (≈) assume the structure as drawn. Blank lines part the entries; values can stand above or below the compound they belong to.
What was measured:
Experiment in all cases: ≥ marks a high value that may be exact or a test limit, other limits are often not marked, values filed in µg/mL are converted to µM
[1] = tested on: Candida albicans TIMM 1768
[2] = tested on: Saccharomyces cerevisiae KCTC 7296
[3] = tested on: Trichosporon beigelii KCTC 7707
[4] = tested on: Candida albicans ATCC 24433
[5] = tested on: Candida parapsilosis ATCC 22019
Streptococcus mutans = tested on: Streptococcus mutans
Bacillus megaterium Bm11 = tested on: Bacillus megaterium Bm11
Escherichia coli ML-35 = tested on: Escherichia coli ML-35
Escherichia coli = tested on: Escherichia coli
Proteus mirabilis = tested on: Proteus mirabilis
[6] = tested on: Salmonella enterica subsp. enterica serovar Typhimurium ATCC 14028
[7] = tested on: Staphylococcus aureus ATCC 25923
Staphylococcus aureus = tested on: Staphylococcus aureus
Escherichia coli 363 = tested on: Escherichia coli 363
Escherichia coli B = tested on: Escherichia coli B
Pseudomonas aeruginosa = tested on: Pseudomonas aeruginosa
Bacillus subtilis 168 = tested on: Bacillus subtilis 168
[8] = tested on: Candida albicans F7-39/IDE99
[9] = tested on: Micrococcus luteus CCM 144
[10] = tested on: Pseudomonas aeruginosa ATCC 27853
[11] = tested on: Staphylococcus aureus ATCC 43300
[12] = tested on: Staphylococcus epidermidis
[13] = tested on: Staphylococcus aureus ATCC 33591
[14] = tested on: Staphylococcus epidermidis ATCC 35984
[15] = tested on: Escherichia coli DH5alpha
Klebsiella pneumoniae = tested on: Klebsiella pneumoniae
[16] = tested on: Micrococcus luteus ATCC 9341
Salmonella typhimurium = tested on: Salmonella typhimurium

MIC [4]: ≥ 267 µM
MIC [5]: ≥ 267 µM
SMILES: CC(C)C[C@H](NC(=O)[C@H](CCCN=C(N)N)NC(=O)[C@H](CCC(N)=O)NC(=O)[C@H](Cc1cnc[nH]1)NC(=O)[C@@H](NC(=O)[C@H](CCCCN)NC(=O)[C@H](CC(C)C)NC(=O)[C@H](CCC(=O)O)NC(=O)[C@H](CO)NC(=O)[C@H](CCCN=C(N)N)NC(=O)[C@@H](N)CO)C(C)C)C(=O)N[C@@H](Cc1ccccc1)C(N)=O [SRSELKVHQRLF]

MIC (Streptococcus mutans): ≥ 176 µM
SMILES: CC[C@H](C)[C@H](NC(=O)[C@H](CCC(N)=O)NC(=O)[C@H](CCCCN)NC(=O)[C@H](Cc1ccccc1)NC(=O)[C@@H](NC(=O)[C@H](CCC(N)=O)NC(=O)[C@H](CC(C)C)NC(=O)[C@H](CC(C)C)NC(=O)[C@@H](N)CCCCN)[C@@H](C)O)C(=O)N[C@@H](Cc1ccccc1)C(=O)N[C@@H](CCCN=C(N)N)C(=O)O [KLLQTFKQIFR]

MIC (Bacillus subtilis 168): 7 µM (≈ 12.3 µg/mL)
MIC [8]: 23 µM (≈ 40.4 µg/mL)
MIC (Escherichia coli B): 30 µM (≈ 52.7 µg/mL)
MIC [9]: 3 µM (≈ 5.27 µg/mL)
MIC [10]: 26 µM (≈ 45.6 µg/mL)
MIC (Pseudomonas aeruginosa): 47 µM (≈ 82.5 µg/mL)
MIC [11]: > 100 µM
MIC (Staphylococcus aureus): > 100 µM
MIC [12]: 16 µM (≈ 28.1 µg/mL)
SMILES: CC[C@H](C)[C@H](NC(=O)CN)C(=O)N[C@@H](CCSC)C(=O)N[C@@H](CO)C(=O)N[C@@H](CO)C(=O)N[C@@H](CC(C)C)C(=O)N[C@@H](CCSC)C(=O)N[C@@H](CCCCN)C(=O)N[C@@H](CCCCN)C(=O)N[C@@H](CC(C)C)C(=O)N[C@@H](CCCCN)C(=O)N[C@@H](C)C(=O)N[C@@H](Cc1cnc[nH]1)C(=O)N[C@H](C(=O)N[C@@H](C)C(=O)N[C@@H](CCCCN)C(N)=O)[C@@H](C)CC [GIMSSLMKKLKAHIAK]

MIC [4]: ≥ 262 µM
MIC [5]: ≥ 262 µM
SMILES: CC(C)C[C@H](NC(=O)[C@H](CCCN=C(N)N)NC(=O)[C@H](CCC(N)=O)NC(=O)[C@H](Cc1cnc[nH]1)NC(=O)[C@@H](NC(=O)[C@H](CCCN=C(N)N)NC(=O)[C@H](CC(C)C)NC(=O)[C@H](CCC(=O)O)NC(=O)[C@H](CO)NC(=O)[C@H](CCCN=C(N)N)NC(=O)[C@@H](N)CO)C(C)C)C(=O)N[C@@H](Cc1ccccc1)C(N)=O [SRSELRVHQRLF]

More lines, now with the values behind:

SMILES: CC[C@H](C)[C@H](NC(=O)[C@@H](NC(=O)[C@@H](N)CCCN=C(N)N)[C@@H](C)CC)C(=O)N[C@@H](CC(=O)O)C(=O)N[C@@H](CC(C)C)C(=O)N[C@@H](CC(C)C)C(=O)N[C@@H](Cc1c[nH]c2ccccc12)C(=O)N[C@@H](CCCN=C(N)N)C(=O)N[C@H](C(=O)N[C@@H](Cc1c[nH]c2ccccc12)C(=O)N[C@@H](CCCN=C(N)N)C(=O)N1CCC[C@H]1C(=O)N[C@@H](CCC(N)=O)C(=O)N[C@@H](CCCCN)C(=O)N1CCC[C@H]1C(=O)N[C@@H](CCCCN)C(=O)N[C@@H](Cc1ccccc1)C(=O)N[C@H](C(=O)N[C@H](C(=O)N[C@H](C(=O)N[C@@H](Cc1c[nH]c2ccccc12)C(=O)N[C@H](C(=O)N[C@@H](CCCN=C(N)N)C(N)=O)C(C)C)C(C)C)[C@@H](C)O)C(C)C)C(C)C [RIIDLLWRVWRPQKPKFVTVWVR]
MIC [1]: 20 µM (≈ 59.8 µg/mL)
MIC [2]: 10 µM (≈ 29.9 µg/mL)
MIC [3]: 10 µM (≈ 29.9 µg/mL)

SMILES: CC(C)C[C@H](NC(=O)[C@H](Cc1ccccc1)NC(=O)[C@H](Cc1cnc[nH]1)NC(=O)[C@H](Cc1ccc(O)cc1)NC(=O)[C@@H](N)CC(C)C)C(=O)N[C@@H](Cc1cnc[nH]1)C(=O)N[C@@H](Cc1c[nH]c2ccccc12)C(=O)N[C@@H](Cc1ccccc1)C(=O)N[C@@H](CCC(N)=O)C(=O)N[C@@H](CCCN=C(N)N)C(=O)N[C@@H](Cc1ccccc1)C(N)=O [LYHFLHWFQRF]
MIC (Streptococcus mutans): ≥ 78.4 µM

SMILES: CC[C@H](C)[C@H](NC(=O)[C@H](CCCCN)NC(=O)[C@H](CCCCN)NC(=O)[C@H](Cc1ccccc1)NC(=O)[C@H](CCCCN)NC(=O)[C@H](CCC(=O)O)NC(=O)CNC(=O)[C@@H](NC(=O)[C@H](CCCCN)NC(=O)[C@H](CCCCN)NC(=O)[C@H](CC(C)C)NC(=O)[C@H](Cc1ccccc1)NC(=O)[C@H](CC(=O)O)NC(=O)[C@H](CCCNC(=N)N)NC(=O)[C@H](CC(C)C)NC(=O)[C@H](CCCNC(=N)N)NC(=O)[C@H](CCCNC(=N)N)NC(=O)[C@H](CC(C)C)NC(=O)[C@H](CC(C)C)NC(=O)CN)[C@@H](C)CC)C(=O)NCC(=O)N[C@H](C=O)Cc1ccc(O)cc1 [GLLRRLRDFLKKIGEKFKKIGY]
MIC (Bacillus megaterium Bm11): 1 µM (≈ 2.66 µg/mL)
MIC (Escherichia coli ML-35): 4 µM (≈ 10.7 µg/mL)
MIC (Escherichia coli): 4 µM (≈ 10.7 µg/mL)
MIC (Proteus mirabilis): ≥ 32 µM
MIC [6]: 4 µM (≈ 10.7 µg/mL)
MIC [7]: 4 µM (≈ 10.7 µg/mL)
MIC (Staphylococcus aureus): 2 µM (≈ 5.33 µg/mL)

SMILES: CC[C@H](C)[C@H](NC(=O)[C@H](CCCCN)NC(=O)[C@H](CO)NC(=O)[C@H](Cc1c[nH]c2ccccc12)NC(=O)[C@H](CC(C)C)NC(=O)CN)C(=O)N[C@@H](CCCCN)C(=O)N[C@@H](CCC(=O)O)C(=O)N[C@H](C(=O)NCC(=O)N[C@@H](CCCCN)C(=O)N[C@@H](CCC(=O)O)C(=O)N[C@@H](C)C(=O)N[C@@H](C)C(=O)N[C@@H](CCCCN)C(=O)N[C@@H](C)C(=O)N[C@@H](C)C(=O)N[C@@H](C)C(=O)N[C@@H](CCCCN)C(=O)N[C@@H](C)C(=O)N[C@@H](C)C(=O)NCC(=O)N[C@@H](CCCCN)C(N)=O)C(C)C [GLWSKIKEVGKEAAKAAAKAAGK]
MIC (Escherichia coli 363): 25 µM (≈ 57.8 µg/mL)
MIC (Escherichia coli B): ≥ 50 µM
MIC (Pseudomonas aeruginosa): 100 µM (≈ 231 µg/mL)
MIC (Staphylococcus aureus): > 100 µM

SMILES: CC[C@H](C)[C@H](NC(=O)[C@H](CCCCN)NC(=O)[C@@H](NC(=O)[C@H](Cc1ccccc1)NC(=O)[C@H](C)NC(=O)[C@H](CCCCN)NC(=O)CNC(=O)[C@H](Cc1ccccc1)NC(=O)[C@H](CCCCN)NC(=O)[C@H](CCCCN)NC(=O)[C@H](C)NC(=O)[C@@H](N)CCCCN)C(C)C)C(N)=O [KAKKFGKAFVKI]
MIC [10]: 66.3 µM (≈ 90.4 µg/mL)
MIC [7]: > 375 µM
MIC [13]: ≥ 375 µM
MIC [14]: ≥ 133 µM

SMILES: CC[C@H](C)[C@H](NC(=O)[C@H](CCCCN)NC(=O)[C@@H](NC(=O)[C@H](Cc1ccccc1)NC(=O)[C@H](C)NC(=O)[C@H](CCCCN)NC(=O)CNC(=O)[C@H](Cc1ccccc1)NC(=O)[C@H](CCCCN)NC(=O)[C@H](CCCCN)NC(=O)[C@H](C)NC(=O)[C@H](CCCCN)NC(=O)[C@H](CCCCN)NC(=O)[C@H](CC(C)C)NC(=O)[C@@H](N)Cc1ccccc1)C(C)C)C(=O)N[C@@H](CC(C)C)C(=O)N[C@@H](CCCCN)C(N)=O [FLKKAKKFGKAFVKILK]
MIC [10]: 1 µM (≈ 2 µg/mL)
MIC [7]: 45.4 µM (≈ 90.5 µg/mL)
MIC [13]: ≥ 128 µM
MIC [14]: 1.42 µM (≈ 2.83 µg/mL)

SMILES: CC[C@H](C)[C@H](N)C(=O)N[C@@H](CC(C)C)C(=O)N[C@@H](C)C(=O)N[C@@H](Cc1c[nH]c2ccccc12)C(=O)N[C@@H](CCCCN)C(=O)N[C@@H](Cc1c[nH]c2ccccc12)C(=O)N1CCC[C@H]1C(=O)N[C@@H](Cc1c[nH]c2ccccc12)C(=O)N[C@@H](Cc1c[nH]c2ccccc12)C(=O)N1CCC[C@H]1C(=O)N[C@@H](Cc1c[nH]c2ccccc12)C(=O)N[C@@H](CCCN=C(N)N)C(=O)N[C@@H](CCCN=C(N)N)C(N)=O [ILAWKWPWWPWRR]
MIC [15]: ≥ 35 µM
MIC (Klebsiella pneumoniae): 35 µM (≈ 65.8 µg/mL)
MIC [16]: 0.4 µM (≈ 0.752 µg/mL)
MIC (Pseudomonas aeruginosa): 50 µM (≈ 94 µg/mL)
MIC (Salmonella typhimurium): ≥ 50 µM

Source: DBAASP
